Assay results taken from patent publication US12215069B2, “Sirtuin modulating compounds and applications thereof” (Codagen Biosciences, Inc., priority 2022, dated 2025).

Columns and labels:
[1] = molecular target: T1, Sirt3 (Homo sapiens, UniProt Q9NTG7); experiment: HPLC assay of Sirt3 deacylation activity under non-steady state conditions; assay type: biochemical; details: compound 10 μM, 2 minute time point, read-out: % Control (10 μM), Sirt3 deacylation activity
T1 construct: The hSirt3^118-399 was purchased from Xtal Biostructures (Natick, MA); purchased Xtal Biostructures (Natick, MA)
T1 sequence (Q9NTG7 118-399): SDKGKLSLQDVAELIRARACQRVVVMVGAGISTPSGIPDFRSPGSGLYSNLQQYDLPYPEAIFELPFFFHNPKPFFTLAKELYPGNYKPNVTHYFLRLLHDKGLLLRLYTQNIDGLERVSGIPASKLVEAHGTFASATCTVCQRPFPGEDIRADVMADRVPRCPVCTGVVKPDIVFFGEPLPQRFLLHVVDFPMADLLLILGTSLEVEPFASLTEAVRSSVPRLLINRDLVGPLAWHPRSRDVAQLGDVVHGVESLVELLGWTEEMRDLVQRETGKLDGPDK
Description: (§1) FdL2 (QPKK^AC-AMC) peptide, also called p53-AMC peptide, was purchased from Enzo Life Sciences (Farmingdale, NY). Carba-NAD was synthesized by Dalton Pharma (Toronto, ON). The hSirt3^118-399 was purchased from Xtal Biostructures (Natick, MA). Virtual screening hits were supplied from ChemBridge Corp. (San Diego, CA).
(§2) Effect of Hit Compounds on hSirt3^118-399 Deacetylation Activity

[2] = molecular target: T1, Sirt3; experiment: Fluorescence-based (FdL) assay of Sirt3 deacylation activity under steady state conditions; assay type: biochemical; details: for remaining activity at 1 µM: compound 1 μM; for remaining activity at 1 µM / remaining activity at 10 µM: read-out: % Control, Sirt3 deacylation activity; for remaining activity at 10 µM: compound 10 μM; for % Control, Sirt3 deacylation activity: compound 50 μM or maximum
Description: as §1, §2

| remaining activity at 10 µM ([1]; [E]0/[NAD+]0 = 0.3, 50 μM NAD+) | remaining activity at 10 µM ([1]; [E]0/[NAD+]0 = 0.6, 50 μM NAD+) | remaining activity at 1 µM [2] | remaining activity at 10 µM [2] | % Control, Sirt3 deacylation activity [2] | SMILES |
| --- | --- | --- | --- | --- | --- |
| 104 ± 3.3% | 107 ± 1.6% | 95.7 ± 2.6% | 82.8 ± 2.3% | 73.6 ± 2.4% | C=C(CC)C(=O)c1ccc(OCC(=O)N[C@H](Cc2ccc(Cl)cc2)C(=O)NCCCC)c(Cl)c1Cl [FIG. 1, (2R)—N-butyl-3-(4-chlorophenyl)-2-[[2-[2,3-dichloro-4-(2-methylenebutanoyl)phenoxy]acetyl]amino]propanamide] |
|  |  | 80.4 ± 3.1% | 75.5 ± 2.3% | 68.7 ± 4.0% | C=C(CC)C(=O)c1ccc(OCC(=O)NC2c3ccccc3CCc3cc(OCC(=O)NCCCC)ccc32)c(Cl)c1Cl (centres unmarked) [FIG. 28] |
